Laboratory results taken from article PMC6691385, “Au Hollow Nanorods-Chimeric Peptide Nanocarrier for NIR-II Photothermal Therapy and Real-time Apoptosis Imaging for Tumor Theranostics” (Theranostics, 2019).

Columns and labels:
Solubility of DTPP = assay type: physicochemical
[1] = Fluorescence, ROS and singlet oxygen generation, cell-free
H22 tumor = assay: In vivo fluorescence imaging; details: tumor bearing mice; i.v.; before laser irradiation, within 8 h
Method: Animal experiments were conducted based on the guidelines for laboratory animals established by the Huazhong Agricultural University. In vivo imaging started when tumor volume approximated 200 mm^3. For photothermal imaging 200 μL AuHNRs-DTPP was intravenously injected into the mice, and the equal volume of PBS buffer was taken as the control. Infrared thermal images were recorded by using a FLIR E85 camera under 1064 nm laser irradiation at a power density of 0.69 W·cm^-2. In vivo fluorescence imaging was collected by a Maestro in vivo imaging system. The tumor bearing mice were intravenously administrated with 200 μL AuHNRs-DTPP (1 g·L^-1) or free DTPP (30 mg·L^-1) solution. Then the mice were anesthetized and imaged at pre-set time. It should be noted that mice received 1064 nm laser irradiation (10 min, 0.69 W·cm^-2) at the 8th h post-injection.

HeLa cells = assay: MTT cytotoxicity assay; assay type: cell-based; details: 10 ppm; cells treated with AuHNRs-DTPP and laser
Method: The in vitro cytotoxicity of AuHNRs-DTPP nanocarrier against HeLa cells were studied by standard MTT assay. In brief, HeLa cells were seeded on 96-well plates with a density of 5000 cells per well. When the cell density came to 80%, the medium was removed and various concentrations of AuHNRs-DTPP nanocarrier in DMEM with 10% FBS were added. After incubation for 6 h, the medium was replaced by 200 μL of fresh medium. For none-treated group or single laser treated group, cells received corresponding treatment and then further incubated for 48 h. And for combined treatment group, cells received 1064 nm laser irradiation and incubated for 2 h. After that, cells received laser irradiation (633 nm) and then further incubated for 48 h. Then, the standard MTT assay was conducted to determine the cell viability. And for COS-7, same operation process was taken.

Row | solubility in DI water (Solubility of DTPP; DI water) | solubility in PBS (Solubility of DTPP; PBS) | Molecule | singlet oxygen ESR signal ([1]; treated with laser) | singlet oxygen ESR signal ([1]; without laser irradiation) | in vivo fluorescence signal (H22 tumor) | effect on cell viability as ROS scavenger (HeLa cells)
1 | almost insoluble | good solubility | PpIX-PEG8-GGK(TPP)GRDEVDGC [DTPP] | obvious ESR signal | no ESR signal | fluorescence signal appeared all over the body | –
2 | – | – | O=C1O[C@H]([C@@H](O)CO)C(O)=C1O [Vitamin C] | – | – | – | significantly improve the cell viability
